Substitutions are numbered along the chain they refer to. Where “and” joins values, the source holds several entries; their conditions need not be identical. Equal entries are not always repeated.
Legend:
[1] = biological target: T1, eIF2Bα (Homo sapiens, UniProt Q14232); assay: Isothermal titration calorimetry, wild-type eIF2Bα; assay type: binding
T1 construct: made in house; host or cells: E. coli BL21(DE3)
T1 sequence (Q14232 1-305): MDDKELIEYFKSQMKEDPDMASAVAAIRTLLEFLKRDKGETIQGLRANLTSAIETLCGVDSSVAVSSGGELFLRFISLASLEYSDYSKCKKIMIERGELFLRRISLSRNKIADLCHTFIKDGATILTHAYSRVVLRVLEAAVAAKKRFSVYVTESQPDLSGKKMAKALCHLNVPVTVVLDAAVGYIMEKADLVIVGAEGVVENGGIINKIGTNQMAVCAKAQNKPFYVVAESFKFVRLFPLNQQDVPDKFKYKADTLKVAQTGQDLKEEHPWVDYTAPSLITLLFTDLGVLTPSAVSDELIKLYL
Description: (§1) Interactions between recombinant protein and sugar phosphates were conducted with a MicroCal PEAQ-ITC (Malvern Panalytical Inc.). Experiments were performed in 25 mM HEPES, 150 mM NaCl, pH 7.5 at 20 °C. The sugar phosphate concentration in the syringe was 1 mM or 1.5 mM, and ~3.5 μL aliquots were injected into cells containing 300 μL eIF2Bα or eIF2B(βδγε) at a concentration of 20–30 μM. The final titration curves were fitted using MicroCal ITC data analysis software, assuming a single binding site per monomer.

[2] = biological target: T2, eIF2B (Homo sapiens, UniProt P49770+Q14232+Q9UI10); assay: eIF2B GEF activity assay, targeted, recombinant wild-type eIF2B; assay type: biochemical; settings: 500 nM ISRIB, 200 μM F6P, 200 μM G1P
T2 construct: made in house; host or cells: eIF2Bα: E. coli BL21(DE3)
T2 sequence (P49770 whole entry, one chain of several): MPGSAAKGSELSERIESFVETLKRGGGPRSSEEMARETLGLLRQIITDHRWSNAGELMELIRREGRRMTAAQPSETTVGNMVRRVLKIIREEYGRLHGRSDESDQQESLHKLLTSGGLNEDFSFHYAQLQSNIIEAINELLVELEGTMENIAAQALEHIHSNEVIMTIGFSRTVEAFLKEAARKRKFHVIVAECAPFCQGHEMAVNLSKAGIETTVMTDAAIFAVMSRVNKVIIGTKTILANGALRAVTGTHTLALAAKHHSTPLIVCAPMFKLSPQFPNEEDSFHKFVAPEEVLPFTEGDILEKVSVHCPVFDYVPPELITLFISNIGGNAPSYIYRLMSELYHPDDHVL
T2 sequence (Q9UI10 whole entry, one chain of several): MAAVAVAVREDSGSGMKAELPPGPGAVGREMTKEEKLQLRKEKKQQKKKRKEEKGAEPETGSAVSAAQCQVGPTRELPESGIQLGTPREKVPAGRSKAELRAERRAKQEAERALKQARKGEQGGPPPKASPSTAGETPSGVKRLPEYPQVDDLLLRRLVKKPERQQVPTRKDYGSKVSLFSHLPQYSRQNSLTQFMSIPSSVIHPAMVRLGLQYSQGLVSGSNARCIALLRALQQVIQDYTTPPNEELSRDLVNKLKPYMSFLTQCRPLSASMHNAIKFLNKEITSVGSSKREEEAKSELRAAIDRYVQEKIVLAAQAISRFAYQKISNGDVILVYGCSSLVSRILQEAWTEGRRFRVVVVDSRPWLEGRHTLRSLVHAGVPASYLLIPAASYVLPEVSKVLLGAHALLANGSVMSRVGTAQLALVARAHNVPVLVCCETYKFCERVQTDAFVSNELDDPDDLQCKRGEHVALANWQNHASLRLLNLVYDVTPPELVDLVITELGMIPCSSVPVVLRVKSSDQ
T2 sequence (Q9NR50 whole entry partner, one chain of several): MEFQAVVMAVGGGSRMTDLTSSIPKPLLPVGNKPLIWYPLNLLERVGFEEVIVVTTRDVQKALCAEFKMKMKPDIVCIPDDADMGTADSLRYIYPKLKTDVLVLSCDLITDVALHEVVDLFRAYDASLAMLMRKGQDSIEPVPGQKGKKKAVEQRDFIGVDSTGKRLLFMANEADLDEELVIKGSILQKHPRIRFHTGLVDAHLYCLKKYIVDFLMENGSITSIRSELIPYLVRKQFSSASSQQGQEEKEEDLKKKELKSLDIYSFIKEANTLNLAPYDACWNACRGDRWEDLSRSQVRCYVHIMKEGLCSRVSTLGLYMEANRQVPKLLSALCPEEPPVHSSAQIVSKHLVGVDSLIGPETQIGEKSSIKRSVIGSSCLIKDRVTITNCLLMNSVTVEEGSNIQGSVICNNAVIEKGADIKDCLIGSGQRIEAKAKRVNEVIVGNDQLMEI
T2 sequence (Q13144 whole entry partner, one chain of several): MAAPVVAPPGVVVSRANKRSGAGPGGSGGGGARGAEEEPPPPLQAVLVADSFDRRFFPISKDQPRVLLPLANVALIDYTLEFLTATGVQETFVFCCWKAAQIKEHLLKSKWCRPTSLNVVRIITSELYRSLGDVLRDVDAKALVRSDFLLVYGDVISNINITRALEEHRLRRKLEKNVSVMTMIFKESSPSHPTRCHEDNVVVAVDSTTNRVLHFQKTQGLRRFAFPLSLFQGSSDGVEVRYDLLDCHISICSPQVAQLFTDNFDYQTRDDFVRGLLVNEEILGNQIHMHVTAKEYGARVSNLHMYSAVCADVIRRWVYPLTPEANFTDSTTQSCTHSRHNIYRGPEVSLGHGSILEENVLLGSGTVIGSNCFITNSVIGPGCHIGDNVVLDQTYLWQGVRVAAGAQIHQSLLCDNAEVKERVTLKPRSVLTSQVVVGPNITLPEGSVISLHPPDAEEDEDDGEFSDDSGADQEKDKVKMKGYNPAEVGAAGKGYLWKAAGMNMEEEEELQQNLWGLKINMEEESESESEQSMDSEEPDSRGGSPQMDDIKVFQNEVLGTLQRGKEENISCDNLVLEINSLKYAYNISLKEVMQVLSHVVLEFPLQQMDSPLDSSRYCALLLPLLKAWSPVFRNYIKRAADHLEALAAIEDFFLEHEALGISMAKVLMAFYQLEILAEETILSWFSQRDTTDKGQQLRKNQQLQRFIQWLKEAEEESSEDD
Description: Bodipy-FL-GDP-loaded eIF2 was used as a substrate for recombinant eIF2B. The assay was performed in 384-well plates. Reactions were read on a SpectraMax i3x plate reader (Molecular Devices) using the instrument’s Softmax Pro software with the following parameters: plate temperature = 25 °C; excitation wavelength = 485 nm (15 nm width); emission wavelength = 535 nm (25 nm width); read duration = 30 min at 45 s intervals. Data were analyzed in Prism. GDP release half-lives were calculated by fitting single-exponential decay curves.
For unbiased screening, MIDAS metabolite libraries at 10 mM stock concentration were dispensed into wells of the assay plate using an Echo Acoustic Liquid Handler (Labcyte). In a final assay volume of 10 μL/well, the following conditions were kept constant: 25 nM Bodipy-FL-GDP-loaded eIF2, 4 nM phospho-eIF2, 0.1 mM GDP, 1 mg/mL BSA, 1 nM eIF2B, 10 μM metabolite. A single well was run for each metabolite. For targeted experiments with recombinant wild-type and mutant eIF2Bα, the following conditions were used: 50 nM Bodipy-FL-GDP-loaded eIF2, 0.1 mM GDP, 1 mg/ml BSA, 20 nM eIF2B. For targeted experiments with HEK293T lysates, the following conditions were used: 50 nM Bodipy-FL-GDP-loaded eIF2, 0.1 mM GDP, 1 mg/ml BSA, 0.1 or 0.3 mg/ml lysates.

[3] = biological target: T1, eIF2Bα; assay: Differential scanning fluorimetry (Protein Thermal Shift), eIF2Bα Tm; assay type: binding; settings: individual replicates Rep 1-4, control without metabolite about 64.1
Description: The effect of metabolite binding on eIF2Bα Tm was assessed using the Protein Thermal Shift assay (Thermo Fisher), following manufacturer’s instructions. Briefly, reaction conditions for each 20 μL reaction were: 1.1 μg (1.5 μM) of eIF2Bα, 5 μl Thermal Shift buffer, 1X Thermal Shift dye, and metabolites in dose response. Reactions were run in 384-well format on a QuantStudio 6 Flex instrument (Thermo Fisher). The resulting melt curves were analyzed using Protein Thermal Shift Software, and eIF2Bα Tms for each condition were calculated by fitting to the Boltzmann function.

[4] = biological target: T3, eIF2B decamer in WT HEK293T lysate (Homo sapiens, UniProt P49770+Q14232+Q9UI10); assay: Sucrose gradient centrifugation, eIF2B complex assembly, WT HEK293T lysate; assay type: biochemical; settings: 400 mM KCl, 5–20% sucrose gradient
T3 construct: endogenous in cells; host or cells: HEK293T (wild type) lysate
T3 sequence (P49770 whole entry, one chain of several): as the sequence (P49770 whole entry, one chain of several) above
T3 sequence (Q9UI10 whole entry, one chain of several): as the sequence (Q9UI10 whole entry, one chain of several) above
T3 sequence (Q9NR50 whole entry partner, one chain of several): as the sequence (Q9NR50 whole entry partner, one chain of several) above
T3 sequence (Q13144 whole entry partner, one chain of several): as the sequence (Q13144 whole entry partner, one chain of several) above
Description: WT or eIF2Bα mutant HEK293T cells were harvested and lysed in 50 mM HEPES, 400 mM KCl, 1 mM DTT, 4 mM Mg(OAc)2, pH 7.5 + 0.5% Triton-X-100 + EDTA-free protease inhibitor cocktail (Roche) on ice for 30 min. Lysates were cleared by centrifugation at 48,000 × g, 4 °C for 30 min. 100 μL of each cleared lysate was loaded onto a 5–20% sucrose gradient prepared in a 13 × 51 mm ultracentrifuge tube using a Gradient Station (Biocomp) and centrifuged in a SW55 Ti rotor at 152,000 × g, 4 °C for 12 h. After centrifugation, 24 × 200 μL fractions were manually collected from the top to bottom of each gradient. Each fraction was subjected to methanol/chloroform precipitation and SDS-PAGE followed by Western Blot with the indicated antibodies. Blots were imaged on a ChemiDoc MP (Bio-Rad), and band intensities were quantified using the instrument’s Image Lab software. Each value was then divided by total intensity obtained across all fractions to determine percent enrichment of each subunit in each fraction.

[5] = biological target: T4, eIF2Bα^N208Y (Homo sapiens, UniProt Q14232, N208Y); assay: Isothermal titration calorimetry, eIF2Bα N208Y; assay type: binding; settings: ITC
T4 construct: made in house; host or cells: E. coli BL21(DE3)
T4 sequence (Q14232 1-305 N208Y): T1 sequence (Q14232 1-305) with N208Y
Description: as §1

O=P(O)(O)O[C@H]1O[C@H](CO)[C@@H](O)[C@H](O)[C@H]1O [G1P, glucose-1-phosphate]
interaction with eIF2Bα ([1]; ITC, wild-type eIF2Bα): did not interact | effect on GEF activity of recombinant wild-type eIF2B [2]: an inactive metabolite in the enzymatic assay | Tm of eIF2Bα ([3]; 0.33 mM metabolite): 64.9734 °C and 64.7812 °C and 64.8751 °C and 63.7923 °C | Tm of eIF2Bα ([3]; 1 mM metabolite): 65.6948 °C and 65.7116 °C and 65.1967 °C and 64.0445 °C | Tm of eIF2Bα ([3]; 3.3 mM metabolite): 65.6535 °C and 64.9673 °C and 65.2055 °C and 64.2208 °C | Tm of eIF2Bα ([3]; 10 mM metabolite): 65.8625 °C and 65.8106 °C and 65.498 °C and 64.4559 °C | eIF2B decamer formation (migration of eIF2Bα and eIF2Bδ) [4]: did not affect the migration of eIF2B subunits

O=C[C@@H](O)[C@@H](O)[C@H](O)[C@H](O)COP(=O)(O)O [M6P, mannose-6-phosphate]
Kd ([1]; ITC, wild-type eIF2Bα): 282 ± 35 µM | ITC binding isotherm, heat per mole of injectant ([1]; molar ratio 0.225339): -1.246 kcal/mol | ITC binding isotherm, heat per mole of injectant ([1]; molar ratio 0.415168): -1.08 kcal/mol | ITC binding isotherm, heat per mole of injectant ([1]; molar ratio 0.606855): -1.012 kcal/mol | ITC binding isotherm, heat per mole of injectant ([1]; molar ratio 0.8004): -0.9251 kcal/mol | ITC binding isotherm, heat per mole of injectant ([1]; molar ratio 0.995804): -0.7798 kcal/mol | ITC binding isotherm, heat per mole of injectant ([1]; molar ratio 1.19307): -0.7719 kcal/mol | ITC binding isotherm, heat per mole of injectant ([1]; molar ratio 1.39219): -0.7333 kcal/mol | ITC binding isotherm, heat per mole of injectant ([1]; molar ratio 1.59317): -0.643 kcal/mol | ITC binding isotherm, heat per mole of injectant ([1]; molar ratio 1.796): -0.5884 kcal/mol | ITC binding isotherm, heat per mole of injectant ([1]; molar ratio 2.0007): -0.5938 kcal/mol | ITC binding isotherm, heat per mole of injectant ([1]; molar ratio 2.20725): -0.6099 kcal/mol | ITC binding isotherm, heat per mole of injectant ([1]; molar ratio 2.41567): -0.5269 kcal/mol | ITC binding isotherm, heat per mole of injectant ([1]; molar ratio 2.62594): -0.5106 kcal/mol | ITC binding isotherm, heat per mole of injectant ([1]; molar ratio 2.83807): -0.4795 kcal/mol | ITC binding isotherm, heat per mole of injectant ([1]; molar ratio 3.05206): -0.426 kcal/mol | ITC binding isotherm, heat per mole of injectant ([1]; molar ratio 3.2679): -0.4467 kcal/mol | ITC binding isotherm, heat per mole of injectant ([1]; molar ratio 3.48561): -0.4459 kcal/mol | ITC binding isotherm, heat per mole of injectant ([1]; molar ratio 3.70517): -0.1953 kcal/mol | interaction with eIF2Bα N208Y [5]: does not interact | Tm of eIF2Bα ([3]; 0.33 mM metabolite): 64.7587 °C and 64.5257 °C and 64.0751 °C and 63.7209 °C | Tm of eIF2Bα ([3]; 1 mM metabolite): 66.0911 °C and 65.9704 °C and 65.2776 °C and 64.2935 °C | Tm of eIF2Bα ([3]; 5 mM metabolite): 66.7846 °C and 66.6099 °C and 66.516 °C and 65.7833 °C

— PMC8187479, “Sugar phosphate activation of the stress sensor eIF2B” (Nature Communications, 2021)
